Laboratory results published in PubChem BioAssay AID1259408 (Genetic Toxicology Data Bank (GENE-TOX), 2018).
The source made the active and inactive calls. How the calls were made is not given here.

System: GENE-TOX genotoxicity assays, various organisms and cells
Test: GENE-TOX mutagenicity studies
Settings: for call: Assay Type: In vivo carcinogenicity studies
[1] = Species/Cell Type: Nonhuman, Assay Type: Sister-chromatid exchange (SCE) in vitro, Assay Code: SC2T, Evaluation Type: Evaluation B (Post-1980)
[2] = Species/Cell Type: Mammalian polychromatic erythrocytes, Assay Type: Micronucleus test, chromosome aberrations, Assay Code: MNT+, Evaluation Type: Evaluation A (Pre-1980)
[3] = Species/Cell Type: Mammalian polychromatic erythrocytes, Assay Type: Micronucleus test, chromosome aberrations, Assay Code: MNT+, Evaluation Type: Evaluation B (Post-1980)
[4] = Species/Cell Type: Mouse, Sex: Male, Assay Type: Sperm morphology, Assay Code: SPI+, Evaluation Type: Evaluation A (Pre-1980)
[5] = Species/Cell Type: Nonhuman, Assay Code: CCG+, Evaluation Type: Evaluation A (Pre-1980)
[6] = Species/Cell Type: Saccharomyces cerevisiae, Assay Type: Reverse gene mutation, Assay Code: YERT, Evaluation Type: Evaluation A (Pre-1980)
[7] = Species/Cell Type: Salmonella typhimurium (one or more of the five standard strains: TA98, TA100, TA1535, TA1537, and TA1538), Assay Type: Histidine reverse gene mutation, Ames assay, Assay Code: SAL+*, Activation: With metabolic activation, Evaluation Type: Evaluation A (Pre-1980)
[8] = Species/Cell Type: Human, Sex: Male, Assay Type: Sperm morphology, Assay Code: SPHT, Evaluation Type: Evaluation A (Pre-1980)
[9] = Species/Cell Type: Nonhuman, Assay Code: CCGT, Evaluation Type: Evaluation A (Pre-1980)
[10] = Species/Cell Type: Nonhuman, Assay Type: Sister-chromatid exchange (SCE) in vitro, Assay Code: SC2+D*, Activation: With metabolic activation, Dose Response: With dose response, Evaluation Type: Evaluation B (Post-1980)
[11] = Species/Cell Type: Bacillus subtilis (H17 vs M45), Assay Type: Rec-assay, spot test, DNA effects (bacterial DNA repair), Assay Code: REW+, Evaluation Type: Evaluation A (Pre-1980)

In the case of `CC1=C(/C=C/C(C)=C/C=C/C(C)=C/C(=O)O)C(C)(C)CCC1`, the mutagenic call (Species/Cell Type: Human, Assay Type: Sister-chromatid exchange (SCE) in vitro, Assay Code: SC1+D, Dose Response: With dose response, Evaluation Type: Evaluation A (Pre-1980)) is reported as “active; positive” and the mutagenic call [1] is reported as “no conclusion”.

`CC[C@]1(O)C[C@@H]2CN(CCc3c([nH]c4ccccc34)[C@@](C(=O)OC)(c3cc4c(cc3OC)N(C)[C@H]3[C@@](O)(C(=O)OC)[C@H](OC(C)=O)[C@]5(CC)C=CCN6CC[C@]43[C@@H]65)C2)C1` was tested, and the mutagenic call [2] was “active; positive”, the mutagenic call [3] was “active; positive” and the mutagenic call [4] was “active; positive”. The mutagenic call (Species/Cell Type: Neurospora crassa, Assay Type: Aneuploidy, chromosome aberrations, Assay Code: NEN-, Evaluation Type: Evaluation A (Pre-1980)) was “inactive; negative”.

`C[C@]12CC[C@H]3[C@@H](CCC4=CC(=O)CC[C@@]43C)[C@@H]1CC[C@@H]2O` was tested, and the mutagenic call (Species/Cell Type: Human, Sex: Male, Assay Type: Sperm morphology, Assay Code: SPH+, Evaluation Type: Evaluation A (Pre-1980)) was “active; positive”, the mutagenic call (Species/Cell Type: Mouse, Sex: Male, Assay Type: Sperm morphology, Assay Code: SPI-, Evaluation Type: Evaluation A (Pre-1980)) was “inactive; negative” and the call [5] was “active; positive”.

For `COC(=O)COc1ccc(Br)cc1CSC(=N)N`, the mutagenic call [6] was “no conclusion”.

In the case of `c1cc2ccc3cc4cccc5ccc6cc(c1)c2c3c6c54`, the mutagenic call [7] is reported as “active; positive”.

With `CC(=O)Nc1ccc(-c2ccc(NC(C)=O)cc2)cc1` the call [5] was “active; positive”.

In the case of `O=C1C2(Cl)C3(Cl)C4(Cl)C(Cl)(Cl)C5(Cl)C3(Cl)C1(Cl)C5(Cl)C24Cl` (stereo unspecified), the mutagenic call [8] is reported as “no conclusion” and the call [5] is reported as “active; positive”.

For `ClC(Cl)(Cl)C1CO1` (stereo unspecified), the mutagenic call (Species/Cell Type: Drosophila melanogaster, Assay Type: Sex-linked recessive lethal gene mutation, Assay Code: SRLT, Evaluation Type: Evaluation A (Pre-1980)) was “no conclusion”, the mutagenic call (Species/Cell Type: Human lymphocytes, Assay Type: Sister-chromatid exchange (SCE) in vitro, Assay Code: SCL+, Evaluation Type: Evaluation B (Post-1980)) was “active; positive” and the mutagenic call (Species/Cell Type: Human, Assay Type: Sister-chromatid exchange (SCE) in vitro, Assay Code: SC1+, Evaluation Type: Evaluation B (Post-1980)) was “active; positive”. The mutagenic call (Species/Cell Type: Saccharomyces cerevisiae, Assay Type: Mitotic recombination or gene conversion, Assay Code: YEH+/-*, Activation: With metabolic activation, Evaluation Type: Evaluation A (Pre-1980)) was “inactive; positive without activation, negative with activation”.

With `O=S1(=O)CCCCO1` the mutagenic call (Species/Cell Type: Escherichia coli polA (W3119 vs P3478), Assay Type: Rec-assay, DNA effects (bacterial DNA repair), Assay Code: RE1+, Evaluation Type: Evaluation A (Pre-1980)) was “active; positive”, the call [9] was “no conclusion” and the mutagenic call (Species/Cell Type: Saccharomyces cerevisiae, Assay Type: Mitotic recombination or gene conversion, Assay Code: YEH+, Evaluation Type: Evaluation A (Pre-1980)) was “active; positive”. The mutagenic call (Species/Cell Type: Salmonella typhimurium (one or more of the five standard strains: TA98, TA100, TA1535, TA1537, and TA1538), Assay Type: Histidine reverse gene mutation, Ames assay, Assay Code: SAL+, Evaluation Type: Evaluation A (Pre-1980)) was “active; positive”, the mutagenic call (Species/Cell Type: Salmonella typhimurium, Assay Type: Forward and reverse gene mutation, host-mediated assay, Assay Code: HMA+, Evaluation Type: Evaluation A (Pre-1980)) was “active; positive” and the mutagenic call (Species/Cell Type: Schizosaccharomyces pombe, Assay Type: Reverse gene mutation, Assay Code: YEZ+, Evaluation Type: Evaluation A (Pre-1980)) was “active; positive”. For the same compound, the mutagenic call (Species/Cell Type: Syrian hamster embryo (SHE) cells, Assay Type: Cell transformation, clonal assay, Assay Code: CTC+, Evaluation Type: Evaluation A (Pre-1980)) was “active; positive”.

For `CCCCC1C(=O)N(c2ccccc2)N(c2ccccc2)C1=O`, the mutagenic call (Species/Cell Type: Mammalian germ cells, Sex: Male, Assay Type: Chromosome aberrations in vivo, Assay Code: CY9-, Evaluation Type: Evaluation A (Pre-1980)) was “inactive; negative”, the mutagenic call [3] was “active; positive” and the mutagenic call (Species/Cell Type: Mammalian polychromatic erythrocytes, Assay Type: Micronucleus test, chromosome aberrations, Assay Code: MNTT, Evaluation Type: Evaluation A (Pre-1980)) was “no conclusion”. For the same compound, the mutagenic call (Species/Cell Type: Rodents, Sex: Male, Assay Type: Dominant lethal test, Assay Code: DLT-, Evaluation Type: Evaluation A (Pre-1980)) was “inactive; negative” and the mutagenic call (Species/Cell Type: Salmonella typhimurium (one or more of the five standard strains: TA98, TA100, TA1535, TA1537, and TA1538), Assay Type: Histidine reverse gene mutation, Ames assay, Assay Code: SALT, Evaluation Type: Evaluation A (Pre-1980)) was “no conclusion”.

With `CC1CN1P(=O)(N1CC1C)N1CC1C` (stereo unspecified) the mutagenic call (Species/Cell Type: Drosophila melanogaster, Assay Type: Sex-linked recessive lethal gene mutation, Assay Code: SRL+, Evaluation Type: Evaluation A (Pre-1980)) was “active; positive”, the mutagenic call (Species/Cell Type: F1 mouse, Sex: Male, Assay Type: Sperm morphology, Assay Code: SPFT, Evaluation Type: Evaluation A (Pre-1980)) was “no conclusion” and the mutagenic call (Species/Cell Type: Hordeum vulgare (barley), Assay Type: Chromosome aberrations, Assay Code: HOC+, Evaluation Type: Evaluation A (Pre-1980)) was “active; positive”. For the same compound, the mutagenic call [2] was “active; positive”, the mutagenic call [4] was “active; positive” and the mutagenic call (Species/Cell Type: Neurospora crassa, Assay Type: Forward gene mutation, Assay Code: NEF+, Evaluation Type: Evaluation A (Pre-1980)) was “active; positive”. The mutagenic call (Species/Cell Type: Nonhuman bone marrow, Assay Type: Chromosome aberrations, in vivo, Assay Code: CY#+, Evaluation Type: Evaluation A (Pre-1980)) was “active; positive”, the call [9] was “no conclusion” and the mutagenic call (Species/Cell Type: Rodents, Sex: Male, Assay Type: Dominant lethal test, Assay Code: DLT+, Evaluation Type: Evaluation A (Pre-1980)) was “active; positive”. The mutagenic call (Species/Cell Type: Vicia faba, Assay Type: Chromosome aberrations, Assay Code: VIC+D, Dose Response: With dose response, Evaluation Type: Evaluation A (Pre-1980)) was “active; positive”.

`COc1nn(CSP(=S)(OC)OC)c(=O)s1` was tested, and the mutagenic call [10] was “active; positive”.

With `CCCN(N=O)C(N)=O` the mutagenic call (Species/Cell Type: Human diploid fibroblasts, Assay Type: Unscheduled DNA synthesis (UDS) in vitro, DNA effects, Assay Code: UDH-, Evaluation Type: Evaluation A (Pre-1980)) was “inactive; negative”, the call (Species/Cell Type: Nonhuman, Assay Code: CCG+L, Evaluation Type: Evaluation A (Pre-1980)) was “active; positive” and the mutagenic call (Species/Cell Type: Saccharomyces cerevisiae, Assay Type: Mitotic recombination or gene conversion, Assay Code: YEC+, Evaluation Type: Evaluation A (Pre-1980)) was “active; positive”.

In the case of `CCN(CC)Cc1cc(CC(=O)NN)ccc1OC`, the mutagenic call [6] is reported as “no conclusion”.

With `C=Cc1ccc(C)cc1` the mutagenic call (Species/Cell Type: Human lymphocytes, Assay Type: Sister-chromatid exchange (SCE) in vitro, Assay Code: SCL+D, Dose Response: With dose response, Evaluation Type: Evaluation B (Post-1980)) was “active; positive” and the mutagenic call (Species/Cell Type: Human, Assay Type: Sister-chromatid exchange (SCE) in vitro, Assay Code: SC1+D, Dose Response: With dose response, Evaluation Type: Evaluation B (Post-1980)) was “active; positive”.

In the case of `Cc1ccc(N)cc1Cl`, the call (Species/Cell Type: Nonhuman, Assay Code: CCG-, Evaluation Type: Evaluation A (Pre-1980)) is reported as “inactive; negative”.

`O=C1c2ccccc2C(=O)c2c(O[C@@H]3O[C@H](CO)[C@@H](O)[C@H](O)[C@H]3O)ccc(O)c21` was tested, and the mutagenic call [7] was “active; positive”.

With `CC/C(=C(\c1ccccc1)c1ccc(OCCN(C)C)cc1)c1ccccc1` the mutagenic call [8] was “no conclusion”.

With `ClC(Cl)c1ccccc1` the mutagenic call [11] was “active; positive” and the mutagenic call [7] was “active; positive”.

With `Clc1c(N2CC2)nc(N2CC2)nc1N1CC1` the mutagenic call (Species/Cell Type: Aspergillus nidulans, Assay Type: Reverse gene mutation, Assay Code: ASR+, Evaluation Type: Evaluation A (Pre-1980)) was “active; positive”.

`COc1ccc(-c2oc3c(OC)c(OC)c(OC)cc3c(=O)c2OC)cc1` was tested, and the mutagenic call [11] was “active; positive”.

In the case of `CC1=C2C(=CO[C@H](C)[C@H]2C)C(=O)C(C(=O)O)=C1O`, the mutagenic call [11] is reported as “active; positive” and the mutagenic call (Species/Cell Type: Saccharomyces cerevisiae, Assay Type: Mitotic recombination or gene conversion, Assay Code: YEH-, Evaluation Type: Evaluation A (Pre-1980)) is reported as “inactive; negative”.

`C=CCCCCCC=CCC#CC#CC=CC` was tested, and the mutagenic call [1] was “no conclusion”.

`CC(C)N(C(=O)SC/C(Cl)=C/Cl)C(C)C` was tested, and the mutagenic call [10] was “active; positive” and the mutagenic call [7] was “active; positive”.

In the case of `c1ccc2c(c1)Sc1ccccc1N2CCCN1CCNCC1`, the mutagenic call (Species/Cell Type: Human lymphocytes, Assay Type: Sister-chromatid exchange (SCE) in vitro, Assay Code: SCLT, Evaluation Type: Evaluation B (Post-1980)) is reported as “no conclusion” and the mutagenic call (Species/Cell Type: Human, Assay Type: Sister-chromatid exchange (SCE) in vitro, Assay Code: SC1T, Evaluation Type: Evaluation B (Post-1980)) is reported as “no conclusion”.
